{
  "source": "paper PMC5477230",
  "about": "(Nature chemical biology, 2016)",
  "key": {"[1]": {"tested_on": "control THP-1 cells", "assay": "CellTiter-Glo cell viability, control THP-1", "assay_type": "cell-based", "conditions": "read-out: IC50 cell viability (CellTiter-Glo)"}, "[2]": {"tested_on": "GSDMD", "assay": "GSDMD cleavage by immunoblotting", "assay_type": "cell-based", "conditions": "THP-1 cells, 24 h"}, "[3]": {"tested_on": "DPP8", "conditions": "read-out: IC50 DPP8; cited from earlier work"}, "[4]": {"tested_on": "rats", "conditions": "cited from earlier work"}, "[5]": {"tested_on": "DPP8/9 knockout THP-1 cells", "assay": "CellTiter-Glo cell viability, DPP8/9 knockout THP-1", "assay_type": "cell-based", "conditions": "read-out: IC50 cell viability (CellTiter-Glo); DPP8/9 KO1 THP-1, 48 h"}, "[6]": {"tested_on": "RAW 264.7 cells", "assay": "LDH cytotoxicity assay, RAW 264.7", "conditions": "for LDH release: RAW 264.7; for effect on cumulative Val-boroPro-induced LDH release: RAW 264.7, 24 hours; for blockade of Val-boroPro-induced pyroptosis: RAW 264.7 macrophages, 50 μM, 30 min pre-treatment, 6 h"}, "[7]": {"tested_on": "Caspase-1 knockout THP-1 cells", "assay": "LDH cytotoxicity assay, caspase-1 knockout THP-1", "assay_type": "cell-based"}, "[8]": {"tested_on": "MCF7 cells", "assay": "CellTiter-Glo cell viability, MCF7", "assay_type": "cell-based", "conditions": "MCF7, 48 h"}, "[9]": {"tested_on": "J774 cells", "conditions": "cited from earlier work"}, "[10]": {"tested_on": "U937 cells and monocyte-derived macrophages", "conditions": "8 μM; cited from earlier work"}, "[11]": {"tested_on": "CASP1 knockout THP-1 cells", "assay": "CellTiter-Glo cell viability, CASP1 knockout THP-1", "assay_type": "cell-based", "conditions": "CASP1 knockout THP-1, 48 h, compared to DMSO"}, "[12]": {"tested_on": "DPP9 knockout THP-1 cells", "assay": "LDH cytotoxicity assay, DPP9 knockout THP-1", "assay_type": "cell-based"}, "[13]": {"tested_on": "DPP7", "conditions": "cited from earlier work"}, "[14]": {"tested_on": "DPP8/9 double knockout THP-1 cells", "assay": "LDH cytotoxicity assay, DPP8/9 double knockout THP-1", "assay_type": "cell-based"}, "[15]": {"tested_on": "THP-1 macrophages", "conditions": "for LDH release: wild-type THP-1 cells; for blockade of Val-boroPro-induced pyroptosis: THP-1 macrophages, 50 μM, 30 min pre-treatment, 6 h"}, "[16]": {"tested_on": "DPP9", "conditions": "read-out: IC50 DPP9; cited from earlier work"}, "[17]": {"tested_on": "DPP4", "conditions": "cited from earlier work"}, "[18]": {"tested_on": "caspase-1 knockout RAW 264.7 cells", "assay": "Cell viability, caspase-1 knockout RAW 264.7", "assay_type": "cell-based, mouse", "conditions": "for cell killing: caspase-1 knockout RAW 264.7"}, "[19]": {"tested_on": "HT-1080 cells", "assay": "CellTiter-Glo cell viability, HT-1080", "assay_type": "cell-based", "conditions": "HT-1080, 48 h"}, "[20]": {"tested_on": "wild-type mice", "assay": "Cytokine stimulation in wild-type mice", "assay_type": "in vivo", "conditions": "oral, Val-boroPro 100 μg/mouse, sitagliptin 1000 μg/mouse"}, "[21]": {"tested_on": "HL-60 cells", "assay": "LDH cytotoxicity assay, HL-60"}, "[22]": {"tested_on": "Casp1−/− knockout C57BL/6NJ mice", "assay": "Cytokine stimulation in Casp1−/− knockout mice", "assay_type": "in vivo", "conditions": "100 μg/mouse, 6 h"}, "[23]": {"biological_target": "SCPEP1 (Homo sapiens, UniProt Q9HB40)", "sequence (Q9HB40 27-452, species assumed)": "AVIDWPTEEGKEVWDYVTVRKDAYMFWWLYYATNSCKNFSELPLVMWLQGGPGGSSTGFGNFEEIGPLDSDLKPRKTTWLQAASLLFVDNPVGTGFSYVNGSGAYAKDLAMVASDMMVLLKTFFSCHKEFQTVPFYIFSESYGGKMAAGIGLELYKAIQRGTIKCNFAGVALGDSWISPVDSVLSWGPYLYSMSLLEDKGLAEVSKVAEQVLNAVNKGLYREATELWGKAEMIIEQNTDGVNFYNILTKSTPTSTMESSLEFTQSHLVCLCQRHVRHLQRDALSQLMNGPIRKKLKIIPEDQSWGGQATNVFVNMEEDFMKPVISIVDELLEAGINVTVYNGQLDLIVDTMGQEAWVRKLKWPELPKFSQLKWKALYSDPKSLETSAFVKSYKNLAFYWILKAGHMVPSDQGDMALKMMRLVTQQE", "assay": "EnPlex serine hydrolase selectivity profiling", "assay_type": "biochemical", "conditions": "10 μM; EnPlex and competitive ABPP"}, "[24]": {"tested_on": "J774 cells", "assay": "LDH cytotoxicity assay, J774"}, "[25]": {"tested_on": "ASC-knockout THP-1 cells", "assay_type": "cell-based"}, "[26]": {"tested_on": "THP-1 macrophages", "assay": "IL-1β expression by immunoblotting", "conditions": "10 μM"}, "[27]": {"tested_on": "GSDMD knockout THP-1 cells", "assay": "LDH cytotoxicity assay, GSDMD knockout THP-1", "assay_type": "cell-based"}, "[28]": {"tested_on": "primary human peripheral blood mononuclear cells (hPBMCs)", "assay": "LDH cytotoxicity assay, hPBMCs"}, "[29]": {"tested_on": "primary mouse bone marrow derived macrophages (mBMDMs)", "assay": "LDH cytotoxicity assay, mBMDMs"}, "[30]": {"tested_on": "U937 cells", "assay": "LDH cytotoxicity assay, U937"}},
  "note": "“Also recorded” adds a separate entry of the source. Like-named read-outs stand apart in the source and are kept apart here. * marks the point of attachment. Cbz = O=C(OCc1ccccc1)*; CH2F = FC*",
  "data": [
    {"compound": "N#C[C@@H]1C[C@@H]2C[C@@H]2N1C(=O)[C@@H](N)C12CC3CC(CC(O)(C3)C1)C2", "note": "[saxagliptin]", "values": [
      {"measurement": "IC50", "setting": "[1]; Homo sapiens, THP-1, 48 h", "result": "2500 to 18700", "unit": "nM"}
    ]},
    {"compound": "N#C[C@@H]1CCCN1C(=O)CNC12CC3CC(CC(O)(C3)C1)C2", "note": "[vildagliptin]", "values": [
      {"measurement": "IC50", "setting": "[1]; Homo sapiens, THP-1, 48 h", "result": "2500 to 18700", "unit": "nM"}
    ]},
    {"compound": "1G244", "values": [
      {"measurement": "GSDMD cleavage", "setting": "[2]", "result": "significant cleavage of GSDMD"},
      {"measurement": "IC50", "setting": "[3]", "result": 14, "unit": "nM"},
      {"measurement": "toxic effects after injection", "setting": "[4]; 30 mg/kg", "result": "startle reflex, convulsions and cyanosis"},
      {"measurement": "concentrations achieved in animals", "setting": "[4]", "result": "> 10", "unit": "µM"},
      {"measurement": "toxic effects after injection", "setting": "[4]; ≥60 mg/kg", "result": "immediate death"},
      {"measurement": "IC50", "setting": "[5]", "result": 21500, "unit": "nM"},
      {"measurement": "LDH release", "setting": "[6]", "result": "induced similar LDH release"},
      {"measurement": "sensitivity of cells to compound (LDH)", "setting": "[7]", "result": "resistant"},
      {"measurement": "cell killing (CellTiter-Glo)", "setting": "[8]", "result": "kills"},
      {"measurement": "cell death", "setting": "[9]", "result": "induces cell death"},
      {"measurement": "form of cell death induced", "setting": "[10]", "result": "induced a form of cell death that appeared to be apoptosis"},
      {"measurement": "cell death (CellTiter-Glo)", "setting": "[11]", "result": "killed"},
      {"measurement": "additional LDH release / cytotoxicity", "setting": "[12]; DPP9 knockout THP-1, Val-boroPro 2 μM, 1G244 10 μM, 24 h", "result": "induced additional LDH release"},
      {"measurement": "IC50", "setting": "[1]; control THP-1, 48 h", "result": 2700, "unit": "nM"},
      {"measurement": "inhibition of DPP7", "setting": "[13]", "result": "does not inhibit"},
      {"measurement": "additional LDH increase", "setting": "[14]", "result": "no additional LDH increase"},
      {"measurement": "LDH release", "setting": "[15]", "result": "induced similar LDH release"},
      {"measurement": "IC50", "setting": "[16]", "result": 53, "unit": "nM"},
      {"measurement": "inhibition of DPP4", "setting": "[17]", "result": "does not inhibit"},
      {"measurement": "cell killing", "setting": "[18]", "result": "kills"},
      {"measurement": "caspase-1-independent cell death", "setting": "[18]; mouse RAW 264.7 cells, 10 μM", "result": "small amounts of caspase-1-independent cell death"},
      {"measurement": "cell killing (CellTiter-Glo)", "setting": "[19]", "result": "kills"}
    ]},
    {"compound": "Ac-YVAD-CMK", "values": [
      {"measurement": "effect on cumulative Val-boroPro-induced LDH release", "setting": "[6]", "result": "no impact"},
      {"measurement": "blockade of Val-boroPro-induced pyroptosis", "setting": "[6]", "result": "completely blocked"},
      {"measurement": "effect on cumulative Val-boroPro-induced LDH release", "setting": "[15]; THP-1, over 24 hours", "result": "no impact"},
      {"measurement": "blockade of Val-boroPro-induced pyroptosis", "setting": "[15]", "result": "completely blocked"}
    ]},
    {"compound": "Cbz-Val-Ala-Asp-CH2F", "values": [
      {"measurement": "effect on cumulative Val-boroPro-induced LDH release", "setting": "[6]", "result": "only partially reduced"},
      {"measurement": "blockade of Val-boroPro-induced pyroptosis", "setting": "[6]", "result": "completely blocked"},
      {"measurement": "blockade of Val-boroPro-induced pyroptosis", "setting": "[15]", "result": "completely blocked"}
    ]},
    {"compound": "CC(C)[C@H](N)C(=O)N1CCC[C@H]1B(O)O", "note": "[Val-boroPro]", "values": [
      {"measurement": "GSDMD cleavage", "setting": "[2]", "result": "significant cleavage of GSDMD"},
      {"measurement": "serum CXCL1/KC induction", "setting": "[20]", "result": "dramatically induces"},
      {"measurement": "serum G-CSF induction", "setting": "[20]", "result": "dramatically induces"},
      {"measurement": "LDH release", "setting": "[6]", "result": "released LDH; also recorded: induced similar LDH release"},
      {"measurement": "sensitivity of cells to compound (LDH)", "setting": "[7]", "result": "resistant"},
      {"measurement": "LDH release", "setting": "[21]", "result": "released LDH"},
      {"measurement": "serum CXCL1/KC increase", "setting": "[22]", "result": "no increase"},
      {"measurement": "serum G-CSF increase", "setting": "[22]", "result": "no increase"},
      {"measurement": "inhibition of SCPEP1 (previously unknown target)", "setting": "[23]", "result": "inhibited"},
      {"measurement": "LDH release", "setting": "[24]", "result": "released LDH"},
      {"measurement": "cytotoxic response (LDH)", "setting": "[25]", "result": "responded equivalently"},
      {"measurement": "additional LDH release / cytotoxicity", "setting": "[12]", "result": "induce additional cytotoxicity"},
      {"measurement": "increase of intracellular pro-IL-1β levels", "setting": "[26]", "result": "~ 2 fold"},
      {"measurement": "inhibition of DPP7", "setting": "[13]; relative to DPP4, DPP8, DPP9", "result": "more weakly inhibit"},
      {"measurement": "onset of induced cell death", "setting": "[27]", "result": "significantly delayed"},
      {"measurement": "additional LDH increase", "setting": "[14]", "result": "no additional LDH increase"},
      {"measurement": "LDH release", "setting": "[15]", "result": "induced similar LDH release"},
      {"measurement": "LDH release", "setting": "[28]", "result": "released LDH"},
      {"measurement": "LDH release", "setting": "[29]", "result": "released LDH"},
      {"measurement": "IC50", "setting": "[17]; read-out: IC50 DPP4", "result": "[…]"},
      {"measurement": "cell killing", "setting": "[18]", "result": "resistant"},
      {"measurement": "LDH release", "setting": "[30]", "result": "do not release LDH"}
    ]}
  ]
}
